Results reported in patent US9499811B2, “Ligation enhancement” (New England Biolabs, Inc., priority 2011, dated 2016).
Where two headings read alike, the source gives them in different places.

What was measured:
[1] = target: T1, T4 DNA ligase (Enterobacteria phage T4, UniProt P00970); settings: Pheiffer et al. 1983; cited from earlier work
T1 sequence (P00970 1-487): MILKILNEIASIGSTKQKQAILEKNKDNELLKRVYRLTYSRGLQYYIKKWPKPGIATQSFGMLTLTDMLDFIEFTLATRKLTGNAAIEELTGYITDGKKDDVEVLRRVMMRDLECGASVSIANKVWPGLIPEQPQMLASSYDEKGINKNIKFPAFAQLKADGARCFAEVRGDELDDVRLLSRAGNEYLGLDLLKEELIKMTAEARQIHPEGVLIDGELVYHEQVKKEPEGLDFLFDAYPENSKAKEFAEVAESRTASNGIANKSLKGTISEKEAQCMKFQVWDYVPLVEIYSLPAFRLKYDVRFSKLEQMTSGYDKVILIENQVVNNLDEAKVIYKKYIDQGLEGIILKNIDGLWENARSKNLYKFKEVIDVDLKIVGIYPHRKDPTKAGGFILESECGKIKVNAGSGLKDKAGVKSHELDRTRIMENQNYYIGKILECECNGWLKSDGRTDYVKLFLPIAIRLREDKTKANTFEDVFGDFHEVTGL

[2] = target: T1, T4 DNA ligase; experiment: Cloning of a 500 bp amplicon made by Taq DNA polymerase into a T-tailed vector (ligation test system a); assay type: biochemical; design: purchased NEB (New England Biolabs), Ipswich, Mass. #M0202; settings: no addition = 1-fold, single-base overhangs
Protocol: (§1) All were tested side-by-side using two ligation test systems which were: (a) cloning of a 500 bp amplicon made by Taq DNA polymerase into a T-tailed vector; and (b) recircularization of an AhdI-linearized plasmid. Both ligation test systems used DNA with single-base overhangs.
(§2) The reaction mixtures contained DNA at 50-100 ng and 1,2-PrD at different concentrations. 1 μl of regular concentration (NEB, Ipswich, Mass., #M0202; 400 units) or 1 μl of high concentration T4 DNA ligase (NEB, Ipswich, Mass., #M0202; 2000 units) was then added to a final volume of 21 μl in 1×T4 DNA Ligase Buffer (NEB, Ipwich, Mass., #B0202) or 1× Quick Ligase™ Buffer (NEB, Ipswich, Mass., #B2200).
(§3) A standard assay uses 100 ng DNA, 1 μl of T4 DNA ligase, 21 μl 1×T4 DNA ligase buffer and varying amounts of enhancer.
(§4) Ligation reactions were incubated for 10 min at room temperature (25° C.) unless otherwise stated, then placed on ice for 2 min. In some experiments the ligase was heat-killed by incubation at 65° C. for 20 min. The ligation reactions were analyzed by 1% agarose gel electrophoresis to identify DNA species and determine the efficiency of […].
(§5) A volume of 2 μl from each ligation reaction was incubated with 50 μl of chemically competent (NEB, Ipswich, Mass., #C2987I) or electrocompetent (NEB, Ipswich, Mass., #C2989K) DH5 alpha E. coli cells.
(§6) For chemically competent cell transformations, the cell-DNA mixture was incubated on ice for 30 min, heat-shocked at 42° C. for 30 sec, then returned to ice for 5 min. A volume of 950 μl SOC medium (2% vegetable peptone or Tryptone, 0.5% yeast extract, 10 mM NaCl, 2.5 mM KCl, 10 mM MgCl2, 10 mM MgSO4 and 20 mM glucose) was added to the cell-DNA mixture, followed by a one hr 37° C. outgrowth period with agitation. A volume of 25-50 μl of appropriately diluted cells in SOC was spread onto Rich Agar plates (composition per liter: 10 g soy peptone, 5 g yeast extract, 10 g NaCl, 1 g MgCl2-6H2O, 1 g dextrose, 15 grams agar) supplemented with 100 μg/ml ampicillin. Plates were inverted and incubated for 16 hrs at 37° C., followed by quantification of total colony numbers.

[3] = target: T1, T4 DNA ligase; assay type: biochemical; design: purchased NEB (New England Biolabs), Ipswich, Mass. #M0202
Protocol: as §1, §2, §3, §4, §5, §6

[4] = test system: ligase; settings: Xiao et al. 2007; nick junctions in double-stranded DNA; cited from earlier work
[5] = enhancer at 12%, no addition = 1-fold, single-base overhangs

| Compound | Cloning Enhancement ([2]; enhancer at 12%) | Effect on efficiency of ligation [4] | Recircularization Enhancement [3, 5] | further results |
| --- | --- | --- | --- | --- |
| PEG 400 |  |  |  | Effect on blunt-end ligation [1]: little effect on ligation |
| OCCO [Ethylene glycol] | 10-fold |  |  | Recircularization Enhancement [3]: 8-fold |
| C[N+](C)(C)CC(=O)O [Betaine] |  |  |  | Cloning Enhancement ([2]; enhancer at 1.3M): 12-fold; Recircularization Enhancement ([3]; enhancer at 1.3M, no addition = 1-fold, single-base overhangs): 13-fold |
| C[S+](C)[O-] [DMSO, dimethyl sulfoxide] |  | inhibited the efficiency of the ligation reaction at nick junctions in double-stranded DNA |  | Cloning Enhancement ([2]; enhancer at 6%): 12-fold; Recircularization Enhancement ([3]; enhancer at 6%, no addition = 1-fold, single-base overhangs): 9-fold |
| OCCCO [1,3-PrD, 1,3-propanediol] | 7-fold |  | 9 fold |  |
| CCO [Ethanol] | 25-fold |  |  | Recircularization Enhancement [3]: 9-fold |
| OCC(O)CO [Glycerol] | 4-fold | inhibited the efficiency of the ligation reaction at nick junctions in double-stranded DNA | 5-fold |  |
| PEG 200 |  |  |  | Effect on blunt-end ligation [1]: little effect on ligation |
| NC=O [formamide, reference compound] |  | inhibited the efficiency of the ligation reaction at nick junctions in double-stranded DNA |  |  |
| CC(C)O [Isopropanol] | 16-fold |  | 10-fold |  |
